Data from patent EP4653445A1, “CDK INHIBITOR AND CRYSTAL FORM OF PHARMACEUTICALLY ACCEPTABLE SALT THEREOF, AND USE THEREOF” (CSPC Zhongqi Pharmaceutical Technology (Shijiazhuang) Co., …, priority 2023, dated 2024).
Where a name gives a salt, the structure may show the parent alone.

How the values were obtained:
Format in all cases: physicochemical
[1] = Dynamic vapor sorption (DVS) test
Procedure: • Instrument: TA Instruments Q5000 SA • Detection method: 20 to 50 mg of the sample was placed in a tared sample basket and automatically weighed, and DVS testing was performed according to the parameters in Table 7: Step Time: 60 min; Equilibration Time per RH%: 1 hour; Total Gas Flow Rate: 200 sccm; Gradient mode: 0%-90%-0% humidity variation, with a humidity variation amount of 10% for each gradient level between 0% and 90%, and gradient endpoint was determined by dm/dt < 0.01% maintained for 10 minutes.

[2] = Stability test, samples placed open for 7 days (HPLC and XRPD); conditions: for XRPD-7days / Purity (Peak area%) 7 days: open
Source text: Subsequently, the samples after 7 days were respectively detected by HPLC and XRPD to determine their chemical and physical stabilities.

[3] = as above; conditions: HPLC

Structure (SMILES) | XRPD pattern / crystalline form after the DVS test ([1]; before vs after DVS test) | XRPD-7days ([2]; 40°C /75%RH) | Purity (Peak area%) 7 days ([2]; 40°C /75%RH, HPLC) [Peak area%] | chemical stability ([2]; 60 °C, 92.5% RH and 40 °C/75% RH for 7 days, HPLC) | XRPD-7days ([2]; 60°C) | Purity (Peak area%) 7 days ([2]; 60°C, HPLC) [Peak area%] | XRPD-7days ([2]; 92.5%RH) | Purity (Peak area%) 7 days ([2]; 92.5%RH, HPLC) [Peak area%] | crystalline form (XRPD) after 7 days ([2]; under the three conditions 60 °C, 92.5% RH and 40 °C/75% RH) | Purity (Peak area%) 0 day [3] [Peak area%] | moisture absorption ([1]; DVS, at 80% RH) [%]
CC(=O)c1c(C)c2cnc(Nc3ccc4c(c3)OC[C@@H]3CN(C5CCN(C)CC5)CCN43)nc2n(C2CCCC2)c1=O [crystalline form B of the hydrochloride salt of compound A] | did not change | Unchanged | 99.33 | chemically stable | Unchanged | 99.38 | Unchanged | 99.36 | remained unchanged | 99.31 | 
CC(=O)c1c(C)c2cnc(Nc3ccc4c(c3)OC[C@@H]3CN(C5CCN(C)CC5)CCN43)nc2n(C2CCCC2)c1=O [crystalline form C of the benzenesulfonate of compound A] |  | remained unchanged | 98.79 |  | remained unchanged | 98.89 | changed into a new crystalline form | 98.84 |  | 98.79 | 1.2
